According to PubChem BioAssay (NCI):
Several values for one entry are separate records, joined by “and”; a condition that tells them apart may be missing. Identical values can stand only once.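 Assay format: 96-well plates, 48-hour exposure. GI50 = concentration required for 50% inhibition of growth. TGI is the concentration that stops growth completely.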

Legend:
Assay in all cases: NCI anticancer screen, dose series, 48 h
SN12C renal = tested on: SN12C renal
EKVX NSCLC = tested on: EKVX NSCLC
NCI-H460 lung = tested on: NCI-H460 lung
K-562 leukemia = tested on: K-562 leukemia
OVCAR-8 ovarian = tested on: OVCAR-8 ovarian
IGROV1 ovarian = tested on: IGROV1 ovarian
SK-OV-3 ovarian = tested on: SK-OV-3 ovarian
SK-MEL-2 melanoma = tested on: SK-MEL-2 melanoma

| Structure (SMILES) | TGI (SN12C renal) | TGI (EKVX NSCLC) | TGI (NCI-H460 lung) | TGI (K-562 leukemia) | TGI (OVCAR-8 ovarian) | TGI (IGROV1 ovarian) | TGI (SK-OV-3 ovarian) | TGI (SK-MEL-2 melanoma) | GI50 (SN12C renal) [µM] | GI50 (EKVX NSCLC) [µM] | GI50 (NCI-H460 lung) [µM] | GI50 (K-562 leukemia) [µM] | GI50 (OVCAR-8 ovarian) [µM] | GI50 (IGROV1 ovarian) [µM] | GI50 (SK-OV-3 ovarian) [µM] | GI50 (SK-MEL-2 melanoma) [µM] |
| --- | --- | --- | --- | --- | --- | --- | --- | --- | --- | --- | --- | --- | --- | --- | --- | --- |
| Cc1ccc(NC(=O)CC/C(CC(=O)C(C)(C)C)=N/NC(=O)C[N+](C)(C)C)cc1C | > 100 µM | > 100 µM | > 100 µM | > 100 µM | > 100 µM | > 100 µM | > 100 µM | > 100 µM |  |  |  |  |  |  |  |  |
| CSc1nc2c(nc(N)n2C2OC(COC(C)=O)C(OC(C)=O)C(OC(C)=O)C2OC(C)=O)c(=O)n1C (stereo not given) | > 100 µM | > 100 µM | > 100 µM | > 100 µM | > 100 µM | > 100 µM | > 100 µM | > 100 µM |  |  |  |  |  |  |  |  |
| CCOC(=O)C1=C(C)N(Cc2ccccc2)C(=O)C1CC#N (stereo not given) | > 100 µM | > 100 µM | > 100 µM | > 100 µM | > 100 µM | > 100 µM | > 100 µM | > 100 µM |  |  |  |  |  |  |  |  |
| COC(=O)NC(=Nc1ccc(Oc2ccccc2)cc1NC=O)NC(=O)OC | > 100 µM | > 100 µM |  | > 100 µM | 8.57 µM | > 100 µM | 0.526 µM |  |  |  |  |  |  |  |  |  |
| C=C(C)C1CC=C(C)CC1 (stereo not given) | > 100 µM and 1640 µM | > 100 µM and 1830 µM | > 100 µM and 1730 µM | > 100 µM and 1720 µM | > 100 µM and 1860 µM | > 100 µM and 1830 µM | > 100 µM and 1900 µM | > 100 µM and 1720 µM | > 100 | > 100 | > 100 | > 100 | > 100 | > 100 | > 100 | > 100 |
| Cn1c(=O)c2ccc(-c3ccc(Br)cc3)nc2n(C)c1=O |  | > 100 µM | > 100 µM | > 100 µM | > 100 µM | > 100 µM | > 100 µM | > 100 µM |  |  |  |  |  |  |  |  |
| COc1ccc2c(c1)[n+]([O-])c(-c1ccc(Br)cc1)c(N)[n+]2[O-] | > 100 µM | > 100 µM | > 100 µM | > 100 µM | > 100 µM | > 100 µM | > 100 µM | > 100 µM |  |  |  |  |  |  |  |  |
| O=C(CC1(O)C(=O)Nc2ccccc21)c1ccc(F)cc1 (stereo not given) | > 100 µM | > 100 µM | > 100 µM | > 100 µM | > 100 µM | > 100 µM | > 100 µM | > 100 µM |  |  |  |  |  |  |  |  |
| N#Cc1cc([N+](=O)[O-])ccc1NC(=O)C(F)(F)F | > 100 µM | > 100 µM | > 57.4 µM | > 100 µM | > 100 µM | > 100 µM | > 100 µM | > 100 µM |  |  |  |  |  |  |  |  |
| C/C=C(/CCC1NCCC2c3ccccc3NC12)[Si](C)(C)C (stereo not given) | 23.9 µM | 27.4 µM | 12.4 µM | 7.7 µM | 21.1 µM | 25.6 µM | 29.1 µM | 26.7 µM |  |  |  |  |  |  |  |  |
| COC(=O)NN1C(C)=C(C(=O)OC)C2(C#N)C(C(=O)OC)=C(C)N(NC(=O)OC)C12N (stereo not given) | > 100 µM | > 100 µM | > 100 µM | > 100 µM | > 100 µM | > 100 µM | > 100 µM | > 100 µM |  |  |  |  |  |  |  |  |
| N.N.O=P([O-])([O-])CN(CCN(CP(=O)([O-])[O-])CP(=O)([O-])[O-])CP(=O)([O-])[O-].[Pt+2] | > 100 µM | > 100 µM | > 100 µM | > 100 µM | > 100 µM | > 100 µM | > 100 µM | > 100 µM | > 100 | > 100 | > 100 | > 100 | > 100 | > 100 | > 100 | > 100 |
| CSc1ccc(OCC2OC2O)cc1 (stereo not given) | > 100 µM | > 100 µM | > 100 µM | > 100 µM | > 100 µM | > 100 µM | > 100 µM | > 100 µM |  |  |  |  |  |  |  |  |
| Cc1cc(=O)n2c3c(c4c(cc13)c(CO)cc(=O)n4C)OC2 | > 100 µM | > 100 µM | > 100 µM | 97.7 µM | 39.1 µM | > 100 µM | > 100 µM | 25.1 µM |  |  |  |  |  |  |  |  |
| CC(=O)[CH-]C(=O)c1ccccc1.CC(=O)[CH-]C(=O)c1ccccc1.CC[C@H](/C=C/C(C)[C@H]1CCC2[C@@H]3CC=C4C[C@@H]([O-])CC[C@]4(C)C3CC[C@@]21C)C(C)C.CC[O-].[Ti+4] (stereo not given in full) | > 100 µM | > 100 µM | > 100 µM | > 100 µM | > 100 µM | > 100 µM | > 100 µM | > 100 µM | > 100 | > 100 | > 100 | > 100 | > 100 | > 100 | > 100 | > 100 |
| Cc1cc(Cl)ccc1NC(=O)CCCC(=O)C1CCC/C1=N\NC(=O)CC#N (stereo not given) | > 100 µM | > 100 µM | > 100 µM | > 100 µM | > 100 µM | > 100 µM | > 100 µM | > 100 µM |  |  |  |  |  |  |  |  |
| C1COCCOCCOCCOCCOCCO1.[Cl][Sn]([Cl])([c]1ccccc1)[c]1ccccc1 | 20.4 µM | 19 µM | 30.5 µM | 10.2 µM | 16.4 µM | 23.7 µM | 30.2 µM | 3.25 µM | 7.02 | 6.77 | 15.1 | 2.44 | 4.97 | 11.2 | 16.6 | 1.7 |
